The results in this text go back to PubChem BioAssay (NCI).

Molecules are shown by their SMILES.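 Briefly, cells in 96-well plates were exposed to five compound concentrations for 48 h, and endpoints were estimated by linear interpolation. Abbreviation: GI50, concentration required for 50% inhibition of growth. TGI: total growth inhibition.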 A value given as a limit tells only on which side of the number the result lay.

Some test systems named below: SK-MEL-5 melanoma; SF-539 CNS; SNB-75 CNS; OVCAR-8 ovarian; OVCAR-4 ovarian; T-47D breast; CAKI-1 renal; NCI-H522 lung.
Common to all, as to test: inhibition of tumour cell growth, NCI panel, 48 h

Take `COC(=O)C1(N2CCOCC2)CCC([C@@H](c2ccccc2)C(C)[N+](=O)[O-])C1` (stereo not given in full): the TGI in the assay with SK-MEL-5 melanoma was over 100 µM; in the assay with SF-539 CNS it was over 100 µM; with SNB-75 CNS it was over 100 µM; in the assay on OVCAR-8 ovarian, over 100 µM; in the assay with OVCAR-4 ovarian, over 100 µM; in the assay on T-47D breast, 9.62 µM.
In the case of `C=C1[C@H](O)C[C@@H](C(C)C(O)CC=C(C)C)[C@@H](O)[C@@H]2C(C)=CC[C@@H]12` (stereo not given in full), the GI50 was over 100 µM in the assay with SK-MEL-5 melanoma; over 100 µM in the assay with CAKI-1 renal; over 100 µM in the assay on SF-539 CNS; over 100 µM in the assay on SNB-75 CNS; over 100 µM in the assay on OVCAR-8 ovarian; 30.3 µM in the assay with NCI-H522 lung. The GI50 in the assay with OVCAR-4 ovarian and in the assay with T-47D breast was over 100 µM throughout. The TGI in the assay with SK-MEL-5 melanoma is over 100 µM; in the assay with CAKI-1 renal it was over 100 µM; in the assay on SF-539 CNS it was over 100 µM; with SNB-75 CNS it was over 100 µM; with OVCAR-8 ovarian, over 100 µM; in the assay on NCI-H522 lung it was 86.4 µM. In addition, the TGI with OVCAR-4 ovarian and with T-47D breast was over 100 µM each time.
For `COc1ccc(N2CCN(c3nc(-c4ccccn4)nc4sc5c(c34)CCCCCC5)CC2)cc1`, the GI50 with SK-MEL-5 melanoma was 2.85 µM; in the assay with CAKI-1 renal it was 5.4 µM; with SF-539 CNS it was 66.9 µM; in the assay with SNB-75 CNS it was 26.1 µM; with OVCAR-8 ovarian, 5.23 µM; in the assay on NCI-H522 lung, 18.6 µM. The GI50 with OVCAR-4 ovarian was 8.58 µM; in the assay with T-47D breast it was 6.31 µM. Moreover, the TGI in the assay with SK-MEL-5 melanoma, in the assay with CAKI-1 renal, in the assay with SF-539 CNS, in the assay on SNB-75 CNS, with OVCAR-8 ovarian and with NCI-H522 lung was over 100 µM each time. For the same compound, the TGI in the assay on OVCAR-4 ovarian and in the assay on T-47D breast was over 100 µM each time.
For `S=C1NC(c2ccccc2)NC(c2ccccc2)S1` (stereo not given), the TGI with SK-MEL-5 melanoma, in the assay on CAKI-1 renal, in the assay with SF-539 CNS, in the assay on SNB-75 CNS, in the assay on OVCAR-8 ovarian and in the assay on NCI-H522 lung was over 100 µM in each case. The TGI in the assay with OVCAR-4 ovarian and with T-47D breast was over 100 µM in each case.
On to `CS(=O)(=O)Nc1cc(-c2ccc3ncnc(Nc4ccc(OCc5ccccn5)c(Cl)c4)c3c2)cnc1Cl`, for which the GI50 with SK-MEL-5 melanoma is 0.214 µM; in the assay with CAKI-1 renal it was 1.09 µM; in the assay with SF-539 CNS it was 0.31 µM; in the assay with SNB-75 CNS, 0.0438 µM; with OVCAR-8 ovarian, 1.36 µM; in the assay on NCI-H522 lung, 0.131 µM. Also, the GI50 was 1.49 µM in the assay with OVCAR-4 ovarian and 0.0258 µM in the assay with T-47D breast. The TGI was 0.68 µM with SK-MEL-5 melanoma; 3.66 µM with CAKI-1 renal; 2.38 µM with SF-539 CNS; 0.797 µM with SNB-75 CNS; 26.8 µM with OVCAR-8 ovarian; 2.35 µM in the assay on NCI-H522 lung. Besides, the TGI in the assay on OVCAR-4 ovarian was over 100 µM; in the assay on T-47D breast, 0.217 µM.
As for `CCCCCCCN(CCCCCCC)C(=N)c1ccc(OC)c2ccccc12`, the GI50 in the assay on SK-MEL-5 melanoma was 1.58 µM; in the assay with CAKI-1 renal, 1.43 µM; in the assay with SNB-75 CNS, 1.3 µM; with OVCAR-8 ovarian, 1.41 µM; in the assay on NCI-H522 lung, 1.25 µM; in the assay with OVCAR-4 ovarian, 1.36 µM. In the assay on T-47D breast, the GI50 is 1.56 µM. In addition, the TGI came to 3.01 µM in the assay with SK-MEL-5 melanoma; 2.83 µM with CAKI-1 renal; 2.6 µM in the assay on SNB-75 CNS; 3.04 µM in the assay with OVCAR-8 ovarian; 2.73 µM with NCI-H522 lung; 3.02 µM with OVCAR-4 ovarian. Moreover, in the assay on T-47D breast, the TGI was 3.33 µM.
With `COc1ccc(CC2OC3(CCCCC3)CC3CCCCN32)cc1` (stereo not given), the TGI in the assay on SK-MEL-5 melanoma, with CAKI-1 renal, with SNB-75 CNS, with OVCAR-8 ovarian, in the assay on NCI-H522 lung and in the assay on OVCAR-4 ovarian was over 100 µM each time. In the assay on T-47D breast, this compound came in with a TGI of over 100 µM.
Regarding `COc1ccc(COc2ccc(Cc3cnc(N)nc3N)cc2OC)cc1`, the GI50 is 3.43 µM with SK-MEL-5 melanoma; over 24.1 µM in the assay on CAKI-1 renal; over 25 µM in the assay on SF-539 CNS; 8.09 µM with SNB-75 CNS; over 25 µM with OVCAR-8 ovarian; over 25 µM in the assay with NCI-H522 lung. Further, the GI50 is 11 µM in the assay with OVCAR-4 ovarian and 7.08 µM in the assay with T-47D breast. The TGI in the assay on SK-MEL-5 melanoma was 7.66 µM; in the assay on CAKI-1 renal, over 25 µM; in the assay with SF-539 CNS it was over 25 µM; in the assay with SNB-75 CNS, over 25 µM; with OVCAR-8 ovarian it was over 25 µM; in the assay on NCI-H522 lung it was over 25 µM. Further, the TGI with OVCAR-4 ovarian and in the assay on T-47D breast was over 25 µM each time.
For the compound `COc1cc2cc(C(=O)Nc3ccccc3)c(N)nc2cc1OC`, the GI50 with SK-MEL-5 melanoma is 22.8 µM; in the assay with CAKI-1 renal it was 34.5 µM; in the assay on SF-539 CNS, 71.6 µM; in the assay with SNB-75 CNS, 29.2 µM; in the assay with OVCAR-8 ovarian, 33.5 µM; in the assay with NCI-H522 lung, 32.7 µM. For the same compound, the GI50 in the assay with OVCAR-4 ovarian is 29.8 µM; with T-47D breast, 23.6 µM. Moreover, the TGI in the assay with SK-MEL-5 melanoma was 88.8 µM; in the assay with CAKI-1 renal it was over 100 µM; in the assay on SF-539 CNS it was over 100 µM; in the assay on SNB-75 CNS it was over 100 µM; in the assay on OVCAR-8 ovarian, over 100 µM; in the assay with NCI-H522 lung it was over 100 µM. In addition, the TGI with OVCAR-4 ovarian and in the assay on T-47D breast was over 100 µM each time.
`OCC1OC(n2cnc3cc(Cl)c(Cl)cc32)C(O)C1O` (stereo not given): the GI50 is 18.5 µM in the assay on SK-MEL-5 melanoma; 14.2 µM with CAKI-1 renal; 19.9 µM in the assay with SF-539 CNS; 31.2 µM in the assay on SNB-75 CNS; 34.7 µM with OVCAR-8 ovarian; 16.3 µM in the assay with NCI-H522 lung. For the same compound, the GI50 was 62.8 µM with OVCAR-4 ovarian and 26.1 µM in the assay on T-47D breast. Also, the TGI is 37.6 µM in the assay on SK-MEL-5 melanoma; 47.8 µM in the assay on CAKI-1 renal; 44.7 µM in the assay on SF-539 CNS; over 74.2 µM with SNB-75 CNS; over 72.2 µM in the assay with OVCAR-8 ovarian; 54.4 µM in the assay with NCI-H522 lung. Moreover, the TGI was over 100 µM in the assay with OVCAR-4 ovarian and over 71.9 µM with T-47D breast.
On to `CN1c2cccc[c]2[Sn]([CH3])([CH3])[c]2ccccc21`, for which the GI50 with SK-MEL-5 melanoma was under 0.01 µM; with CAKI-1 renal, 0.01 µM; in the assay with SF-539 CNS it was under 0.011 µM; in the assay with SNB-75 CNS, under 0.0142 µM; in the assay with OVCAR-8 ovarian it was under 0.0134 µM; in the assay on NCI-H522 lung it was 0.0102 µM. The GI50 in the assay on OVCAR-4 ovarian is under 0.0121 µM. Besides, the TGI with SK-MEL-5 melanoma is 0.023 µM; with CAKI-1 renal, under 0.0356 µM; in the assay on SF-539 CNS, 0.0473 µM; with SNB-75 CNS, 0.192 µM; in the assay with OVCAR-8 ovarian, under 0.023 µM; in the assay on NCI-H522 lung it was 0.0262 µM. Also, the TGI in the assay with OVCAR-4 ovarian was determined as 0.232 µM.
